Laboratory results reported in the NIST ThermoML archive (doi:10.1016/j.jct.2005.10.001).
± gives the expanded uncertainty stated by the source.

How the values were obtained:
[1] = refractive index (Na D-line) (dimensionless); conditions: 293.15 K; 101.33 kPa; Liquid; Standard Abbe refractometry
[2] = Liquid; for mass density: 293.15 K, 101.33 kPa, Vibrating tube method

For `CCC(C)=O` [butanone], the refractive index [1] was 1.3765 ± 0.0004, the mass density [2] was 799.8 ± 0.2 kg/m3 and the “vapor or sublimation pressure” value ([2]; 333.15 K) was 51.89 ± 0.59 kPa. The “vapor or sublimation pressure” value ([2]; 340.17 K) was 66.66 ± 1.6 kPa, the “vapor or sublimation pressure” value ([2]; 345.51 K) was 79.99 ± 2.2 kPa and the “vapor or sublimation pressure” value ([2]; 349.12 K) was 89.99 ± 2.4 kPa. The “vapor or sublimation pressure” value ([2]; 352.3 K) was 99.99 ± 2.8 kPa.
With `CC(C)=O` [acetone] the refractive index [1] was 1.359 ± 0.0004, the mass density [2] was 784.5 ± 0.2 kg/m3 and the “vapor or sublimation pressure” value ([2]; 317.58 K) was 66.66 ± 1.6 kPa. For the same compound, the “vapor or sublimation pressure” value ([2]; 322.68 K) was 79.99 ± 2.1 kPa, the “vapor or sublimation pressure” value ([2]; 323.15 K) was 81.39 ± 0.82 kPa and the “vapor or sublimation pressure” value ([2]; 324.94 K) was 86.66 ± 2.1 kPa. For the same compound, the “vapor or sublimation pressure” value ([2]; 328.98 K) was 99.99 ± 2.6 kPa.
For `C=C(C)OCC` [2-ethoxy-1-propene], the refractive index [1] was 1.3913 ± 0.0004, the mass density [2] was 771.2 ± 0.2 kg/m3 and the “vapor or sublimation pressure” value ([2]; 320.98 K, Ebulliometric method (Recirculating still)) was 62.74 ± 0.8 kPa. The “vapor or sublimation pressure” value ([2]; 322.13 K, Ebulliometric method (Recirculating still)) was 65.19 ± 0.9 kPa, the “vapor or sublimation pressure” value ([2]; 322.7 K, Ebulliometric method (Recirculating still)) was 66.66 ± 1.5 kPa and the “vapor or sublimation pressure” value ([2]; 323.15 K, Ebulliometric method (Recirculating still)) was 67.84 ± 0.7 kPa. The “vapor or sublimation pressure” value ([2]; 323.47 K, Ebulliometric method (Recirculating still)) was 68.4 ± 0.9 kPa, the “vapor or sublimation pressure” value ([2]; 324.5 K, Ebulliometric method (Recirculating still)) was 70.65 ± 0.9 kPa and the “vapor or sublimation pressure” value ([2]; 325.43 K, Ebulliometric method (Recirculating still)) was 72.69 ± 1 kPa. The “vapor or sublimation pressure” value ([2]; 326.52 K, Ebulliometric method (Recirculating still)) was 75.47 ± 1 kPa, the “vapor or sublimation pressure” value ([2]; 327.43 K, Ebulliometric method (Recirculating still)) was 77.89 ± 1 kPa and the “vapor or sublimation pressure” value ([2]; 327.69 K, Ebulliometric method (Recirculating still)) was 79.99 ± 2.1 kPa. For the same compound, the “vapor or sublimation pressure” value ([2]; 328.26 K, Ebulliometric method (Recirculating still)) was 80.16 ± 1.1 kPa, the “vapor or sublimation pressure” value ([2]; 329.39 K, Ebulliometric method (Recirculating still)) was 83.21 ± 1.1 kPa and the “vapor or sublimation pressure” value ([2]; 329.89 K, Ebulliometric method (Recirculating still)) was 85.35 ± 1.1 kPa. The “vapor or sublimation pressure” value ([2]; 329.96 K, Ebulliometric method (Recirculating still)) was 86.66 ± 2.3 kPa, the “vapor or sublimation pressure” value ([2]; 331.07 K, Ebulliometric method (Recirculating still)) was 88.17 ± 1.2 kPa and the “vapor or sublimation pressure” value ([2]; 331.1 K, Ebulliometric method (Recirculating still)) was 89.99 ± 2.5 kPa. For the same compound, the “vapor or sublimation pressure” value ([2]; 331.48 K, Ebulliometric method (Recirculating still)) was 90.62 ± 1.2 kPa, the “vapor or sublimation pressure” value ([2]; 332.88 K, Ebulliometric method (Recirculating still)) was 93.41 ± 1.2 kPa and the “vapor or sublimation pressure” value ([2]; 333.15 K, Ebulliometric method (Recirculating still)) was 95.98 ± 1 kPa. For the same compound, the “vapor or sublimation pressure” value ([2]; 333.68 K, Ebulliometric method (Recirculating still)) was 96.12 ± 1.3 kPa, the “vapor or sublimation pressure” value ([2]; 334.46 K, Ebulliometric method (Recirculating still)) was 98.47 ± 1.8 kPa and the “vapor or sublimation pressure” value ([2]; 334.57 K, Ebulliometric method (Recirculating still)) was 99.82 ± 1.8 kPa. The “vapor or sublimation pressure” value ([2]; 334.67 K, Ebulliometric method (Recirculating still)) was 99.99 ± 3.1 kPa.
